Patent US20150374705A1, “Substances for treatment or relief of pain” (Shanghai Institues for Biological Sciences, priority 2012, published 2015)

Tests used:
Type in all cases: in vivo
[1] = test system: SNI model rats (neuropathic pain); assay: Spared nerve injury (SNI) model, neuropathic pain, mechanical pain threshold; details: rat, intrathecal injection 7 days after SNI, threshold at 9-17 days
Protocol: Male SD rats (200-250 g) were used, 6 per group in the cage. All the animals were placed under 12 hours light/cycle (i.e. 12 hours light and 12 hours dark in each day), free to food and water. All the experiments were conducted under the condition that the observers were blind to pharmaceutical treatment.
Spared nerve injury model (SNI): 10% chloral hydrate was injected intraperitoneally to anesthetize rats. […] The muscle was longitudinally separated to expose the core of sciatic nerve and the branching below: tibial nerve, common peroneal nerve and sural nerve. The tibial nerve and common peroneal nerve were ligatured and cut and small sural nerve was retained, meanwhile preventing any injury. The muscle and skin were sutured layer by layer, and then antibiotics were injected intraperitoneally for antibacterial purpose. For detailed methods, please refer to Decosterd I and Woolf C J. Spared nerve injury: an animal model of persistent peripheral neuropathic pain. 2000 August; Pain 87(2):149-58.
Method for detecting mechanical hyperalgesia in rats: firstly CFA solution was injected in the thenar of rats. After 24 hours, mechanical hyperalgesia quantitative detection was adopted to measure the paw withdrawal of rats to normal and harmless mechanical stimulation. Evaluation was conducted according to reference (Chaplan S R et al., Quantitative assessment of tactile allodynia in the rat paw. J Neurosci Methods. 1994 July; 53(1):55-63). In this method, the von Frey fibers with different bending force (equivalent to the range of 1-50 g force) were used to apply harmless mechanical stimulation. The rats were placed in organic glass box with metal mesh plate, and the von Frey fibers were applied on the surface of leg thenar. The von Frey fibers were applied vertically to the surface of thenar to generate the force that will trigger slight resistance to the leg. 2-3 seconds were maintained for every leg thenar. If the leg withdrew suddenly, positive records were recorded. The threshold was the mean of the weight that caused 50% paw withdrawal response (5-6 paw withdrawal/10 stimulations) in overall 10 stimulations.
Compounds MRK 016, C2, C3, C4, C5, C6, C7, C8 or α5IA (A5I) were dissolved in 70% PGE400 (PGE400:water=70:30 in volume). For injection dose, MRK016 was 2 mg/kg body weight; A5I was 3 mg/kg body weight; C2, C3, C4, C5, C6, C7 and C8 were 3 mg/kg body weight.
MRK016-M3 was dissolved in 90% PGE400 (PGE400:water=90:10 in volume). The doses were 10 mg/kg, 3 mg/kg, 1 mg/kg and 0.3 mg/kg, respectively for oral administration.
The method for behavioral data statistics was unpaired t-test. *, p<0.05, represents significant difference.

[2] = test system: CFA induced inflammatory pain model rats (heat pain); assay: CFA induced inflammatory pain model, heat pain threshold; details: rat, spinal injection the day before CFA, measured every day
[3] = test system: CFA induced inflammatory pain model rats (mechanical pain); assay: CFA induced inflammatory pain model, mechanical pain threshold; details: rat, spinal injection the day before CFA, measured every day
[4] = test system: α5 subunit protein of GABAA receptor in dorsal root ganglion; assay: Knock-down of α5 subunit of GABAA receptor in dorsal root ganglion, western blot; details: rat, intrathecal injection
Protocol: In western blot experiment, obtained dorsal root ganglion was lysed in RIPA (50 mM Tris (pH7.4), 150 mM NaCl, 1% Triton X-100, 1% sodium deoxycholate, 0.1% SDS as well as sodium orthovanadate, sodium fluoride, EDTA and leupeptin. The proteins were boiled at 100° C. for 5 minutes for denaturation. 10-20 μl samples were added into the prepared channels after the protein samples became cool. Then, electrophoresis was conducted at 60 V for 30 minutes. After the samples passed the boundary between the upper layer gel and the lower layer gel, the voltage was adjusted to 90 V until bromophenol blue reached the lower edge of the lower layer gel. After electrophoresis, the SDS gel that contained target bands was cut for transferring. Through electric transferring, the negative charged proteins were transferred to positive charged PVDF membrane. The blocking buffer that contained 5% skim milk powder was used to block the membrane for 1 hour to reduce unspecific binding. Then, the PVDF membrane was immersed in the blocking buffer containing primary antibody and incubated overnight at 4° C. or 1-2 hours at room temperature. […] Finally, PVDF membrane was incubated with the substrate of horse radish peroxidase ECL-PLUS for 5 minutes in dark to produce fluorescence signal. Then X-ray film was used to capture the fluorescence signal on PVDF membrane. […]

## siRNA specific to the mRNA of α5-GABAA receptor: siRNA, sequence 5′GGUGCGAACAGACAUCUAUTT 3′ (chemistry not given here)
[1]
  Pain threshold in SNI model after siRNA: significantly elevated pain threshold
[2]
  Heat pain threshold after siRNA: inhibit the inflammatory pain efficiently
[3]
  Mechanical pain threshold after siRNA: inhibit the inflammatory pain efficiently
[4]
  Expression of the α5 subunit of GABAA receptor in dorsal root ganglion: significantly knocked-out the expression
